Earlier results on three compounds are cited in US20150313903A1, “METHODS OF TREATING COGNITIVE IMPAIRMENT ASSOCIATED WITH NEURODEGENERATIVE DISORDERS” (Ovid Therapeutics Inc., priority 2014, published 2015).

For data set [1] the following is noted: alcoholics.
For data set [2] the following is noted: subjects taking ritanserin.
The conditions of data set [3]: MPTP model of parkinsonism in mice.
The conditions of data set [4]: direct injection into the hippocampus, rats.
The test system of another data set is BDNF. To be noted: in vivo.
In the next data set the target is T1, dopamine transporter (Homo sapiens, UniProt Q01959).
T1 construct: host or cells: prefrontal cortex
To be noted: within the prefrontal cortex (PFC).

Another data set addresses serotonin-S2 receptor (Rattus norvegicus, UniProt P14842). To be noted: in vivo; dose as low as.
The conditions of data set [5]: in vivo.
Assay in data set [6]: not given
The source holds these as a separate data set.

The conditions of data set [7]: classical conditioning model.
For data set [8] the following is noted: several trials, monotherapy.
The conditions of data set [9]: generalized anxiety disorders, versus control subjects.
The conditions of data set [10]: in vivo. The source holds these as a separate data set.
The conditions of data set [11]: in vivo. The source holds these as a separate data set.
On the set-up of data set [12]: key: *: shown to have a beneficial effect in ALS. To be noted: in vivo.
The mark [13] stands for this setting: Parkinson's patients, later studies.
Where [14] appears, read: open pilot trial, parkinsonian patients.
[15] abbreviates: acute dose 10 mg, healthy volunteers.

Each structure is given as a SMILES string. Where two headings read alike, the source gives them in different places.

T1 sequence (Q01959 whole entry): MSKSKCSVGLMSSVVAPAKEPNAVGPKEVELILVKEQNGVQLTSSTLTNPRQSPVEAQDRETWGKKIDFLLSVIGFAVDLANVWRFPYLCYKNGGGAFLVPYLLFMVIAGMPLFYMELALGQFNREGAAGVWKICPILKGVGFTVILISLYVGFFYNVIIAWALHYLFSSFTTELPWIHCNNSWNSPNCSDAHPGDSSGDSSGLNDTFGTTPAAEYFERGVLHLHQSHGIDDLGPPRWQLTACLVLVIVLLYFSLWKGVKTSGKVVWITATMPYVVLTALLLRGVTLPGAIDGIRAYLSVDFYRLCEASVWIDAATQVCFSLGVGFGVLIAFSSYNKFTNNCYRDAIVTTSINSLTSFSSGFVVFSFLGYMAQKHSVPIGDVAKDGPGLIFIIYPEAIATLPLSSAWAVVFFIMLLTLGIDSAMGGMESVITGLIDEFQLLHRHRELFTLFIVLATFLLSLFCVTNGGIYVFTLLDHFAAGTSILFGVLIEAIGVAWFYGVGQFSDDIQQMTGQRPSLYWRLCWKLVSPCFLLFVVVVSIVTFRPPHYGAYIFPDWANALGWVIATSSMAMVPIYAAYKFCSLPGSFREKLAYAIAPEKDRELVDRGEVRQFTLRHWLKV
Chain of serotonin-S2 receptor (P14842 whole entry): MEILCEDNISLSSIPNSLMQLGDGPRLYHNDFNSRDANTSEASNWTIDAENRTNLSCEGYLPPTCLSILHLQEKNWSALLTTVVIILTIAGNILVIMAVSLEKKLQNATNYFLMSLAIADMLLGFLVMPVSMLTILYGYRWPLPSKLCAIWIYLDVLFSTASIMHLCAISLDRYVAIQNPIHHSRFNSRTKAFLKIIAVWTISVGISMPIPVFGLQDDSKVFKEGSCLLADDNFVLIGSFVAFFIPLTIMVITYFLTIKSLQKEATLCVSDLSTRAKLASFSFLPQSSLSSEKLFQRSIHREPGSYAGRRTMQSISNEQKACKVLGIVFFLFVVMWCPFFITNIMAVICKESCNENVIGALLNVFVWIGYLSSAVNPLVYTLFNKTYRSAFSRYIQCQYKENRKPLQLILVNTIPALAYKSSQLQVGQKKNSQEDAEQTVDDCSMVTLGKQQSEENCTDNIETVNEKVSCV

As to `Cc1nc2sccn2c(=O)c1CCN1CCC(=C(c2ccc(F)cc2)c2ccc(F)cc2)CC1` [ritanserin, 6-[2-[4-[bis(4-fluorophenyl)methylene]-1-piperidinyl]ethyl]-7-methyl-5H-thiazolo[3,2-a]pyrimidin-5-one], the “outcome of Phase 3 trial for alcohol abstinence” value in data set [1] is “failed a Phase 3 trial”. Besides, in data set [2], the weight gain entry is on record as “Weight gain is not observed”. Besides, the bradykinesia entry under setting [13] is listed as “reduced bradykinesia”. Moreover, the gait result under setting [13] is reported as “improved gait”. Further, the L-Dopa-induced dyskinesia entry under setting [14] is “reduced L-Dopa-induced dyskinesia”. The “tremor, rigidity, or akinesia” value under setting [14] is recorded as “no significant modifying”. In data set [3], the motor deficit entry was “reduced motor deficit”. Further, the effect on learning entry in [4] is given as “inhibit learning”; in data set [7], “impair learning”. For the same compound, in the data set on BDNF, the “expression of brain (hippocampal) BDNF” value is listed as “increases the expression”. Moreover, the “inhibition of the dopamine transporter” value on dopamine transporter is “selectively inhibit the dopamine transporter”. In addition, at serotonin-S2 receptor, the “dose giving 50% serotonin-S2 receptor occupation” value is 0.08 m/kg. Moreover, the “blocking the physiological effects of LSD” value in data set [5] is on record as “some activity”. Moreover, in data set [6] (setting [15]), the “effect on REM sleep” value is given as “decreased REM sleep”. Also, the “effect on Stage 2 sleep” value in data set [6] (setting [15]) is “decreased Stage 2 sleep”. Moreover, in data set [6] (setting [15]), the “effect on slow-wave sleep” value is listed as “increased slow-wave sleep”. The “increase in SWS during the night, on average” value is “about 52 minutes” in [6] (administered just before bedtime) and “about 94 minutes” in data set [6] (morning administration). Further, the “psychomotor sedation during the day” value in data set [6] (after morning administration) was “no psychomotor sedation”. The “tolerance to the sleep-enhancing effects” value in [6] (after repeated administration) was “no tolerance”. Besides, the SWS duration result in data set [6] (at clinical doses) is recorded as “can double SWS duration”. Moreover, the “average increase in slow-wave sleep” value is 53 min in [6] (dose 1 mg), 82 min in [6] (dose 3 mg), 101 min in data set [6] (dose 10 mg) and 136.5 min in data set [6] (dose 30 mg). Also, the efficacy in schizophrenia result in [8] is “did show efficacy”. In data set [9], the “self-rating of treated subjects” value is “calmer, more relaxed, and more energetic than control subjects”.
In the case of `CC(C)COc1ccc(CNC(=O)N(Cc2ccc(F)cc2)C2CCN(C)CC2)cc1` [Pimavanserin], the “reversing PCP-induced deficits” value in data set [10] is recorded as “no activity”. Further, in data set [11], the “efficacy in psychosis associated with Parkinson's disease” value is “effective”.
With `Nc1nc2ccc(OC(F)(F)F)cc2s1` [Riluzole, 2-amino-6-(trifluoromethoxy) benzothiazole], the “beneficial effect in ALS (asterisk mark)” value in data set [12] is on record as “*Riluzole”.
